Experimental data taken from PubChem BioAssay AID2060616 (Molecular Pharmacology Branch, DTP, NCI, 2025).

System: 377384-186-R-J1-PDC complex spheroid viability
Assay: Anticancer human tumor 377384-186-R-J1-PDC patient-derived pancreatic carcinoma cell line growth inhibition [CLK]
Conditions: for IC50: curve of first compound; for viability, T/C: stronger effect = lower value
Outline: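 Patient-derived tumor cells grown as complex spheroids with HUVEC endothelial cells and mesenchymal stem cells, treated with drug combinations. Concentrations descend in half-log steps from near clinical Cmax, or from 10 microM if Cmax unknown.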
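Note: spheroids exposed to agents for 7 days before reading.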
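Throughout, for viability, T/C: luminescence signal used as a stand-in for viable cells.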

Question: What does the source list for `CC1COCCN1c1cc(C2(S(C)(=N)=O)CC2)nc(-c2ccnc3[nH]ccc23)n1` (centres undefined) + CNC(=O)c1ccc(Nc2nc(OC3CCCC3)c3c(-c4ccc5nc(C)oc5c4)c[nH]c3n2)c(OC)c1?
Answer: IC50 (second compound 0.0316 µM): 2600 nM; IC50 (second compound 0.1 µM): 232 nM; IC50 (second compound 0.316 µM): < 31.6 nM; IC50 (second compound 1 µM): < 31.6 nM; IC50 (second compound 3.16 µM): < 31.6 nM; IC50 (second compound 10 µM): < 31.6 nM; viability, T/C (second compound 0.0316 µM, first compound 0.0316 µM): 105%; viability, T/C (second compound 0.0316 µM, first compound 0.1 µM): 110%; viability, T/C (second compound 0.0316 µM, first compound 0.316 µM): 106%; viability, T/C (second compound 0.0316 µM, first compound 1 µM): 83.5%; viability, T/C (second compound 0.0316 µM, first compound 3.16 µM): 43.5%; viability, T/C (second compound 0.0316 µM, first compound 10 µM): 17.4%; viability, T/C (second compound 0.1 µM, first compound 0.0316 µM): 62.4%; viability, T/C (second compound 0.1 µM, first compound 0.1 µM): 56.8%; viability, T/C (second compound 0.1 µM, first compound 0.316 µM): 52%; viability, T/C (second compound 0.1 µM, first compound 1 µM): 41.1%; viability, T/C (second compound 0.1 µM, first compound 3.16 µM): 23.7%; viability, T/C (second compound 0.1 µM, first compound 10 µM): 19.9%; viability, T/C (second compound 0.316 µM, first compound 0.0316 µM): 21.3%; viability, T/C (second compound 0.316 µM, first compound 0.1 µM): 23.4%; viability, T/C (second compound 0.316 µM, first compound 0.316 µM): 18.6%; viability, T/C (second compound 0.316 µM, first compound 1 µM): 16.9%; viability, T/C (second compound 0.316 µM, first compound 3.16 µM): 13.8%; viability, T/C (second compound 0.316 µM, first compound 10 µM): 9.16%; viability, T/C (second compound 1 µM, first compound 0.0316 µM): 20.6%; viability, T/C (second compound 1 µM, first compound 0.1 µM): 20.9%; viability, T/C (second compound 1 µM, first compound 0.316 µM): 22.3%; viability, T/C (second compound 1 µM, first compound 1 µM): 17.9%; viability, T/C (second compound 1 µM, first compound 3.16 µM): 12%; viability, T/C (second compound 1 µM, first compound 10 µM): 7.93%; viability, T/C (second compound 3.16 µM, first compound 0.0316 µM): 20.2%; viability, T/C (second compound 3.16 µM, first compound 0.1 µM): 21.2%; viability, T/C (second compound 3.16 µM, first compound 0.316 µM): 20.6%; viability, T/C (second compound 3.16 µM, first compound 1 µM): 18.9%; viability, T/C (second compound 3.16 µM, first compound 3.16 µM): 14.1%; viability, T/C (second compound 3.16 µM, first compound 10 µM): 9.68%; viability, T/C (second compound 10 µM, first compound 0.0316 µM): 20.4%; viability, T/C (second compound 10 µM, first compound 0.1 µM): 19%; viability, T/C (second compound 10 µM, first compound 0.316 µM): 21.5%; viability, T/C (second compound 10 µM, first compound 1 µM): 19.4%; viability, T/C (second compound 10 µM, first compound 3.16 µM): 12.4%; viability, T/C (second compound 10 µM, first compound 10 µM): 9.21%

Question: Which results are given for `NC(=O)C(=Cn1cnc(-c2cc(C(F)(F)F)cc(C(F)(F)F)c2)n1)c1cncnc1` + CNC(=O)c1ccc(Nc2nc(OC3CCCC3)c3c(-c4ccc5nc(C)oc5c4)c[nH]c3n2)c(OC)c1?
Answer: IC50 (second compound 0.0316 µM): 52.6 nM; IC50 (second compound 0.1 µM): 12.3 nM; IC50 (second compound 0.316 µM): < 9.49 nM; IC50 (second compound 1 µM): < 9.49 nM; IC50 (second compound 3.16 µM): < 9.49 nM; IC50 (second compound 10 µM): < 9.49 nM; viability, T/C (second compound 0.0316 µM, first compound 0.00949 µM): 97.1%; viability, T/C (second compound 0.0316 µM, first compound 0.03 µM): 59.2%; viability, T/C (second compound 0.0316 µM, first compound 0.0949 µM): 40.4%; viability, T/C (second compound 0.0316 µM, first compound 0.3 µM): 21.2%; viability, T/C (second compound 0.0316 µM, first compound 0.949 µM): 5.59%; viability, T/C (second compound 0.0316 µM, first compound 3 µM): 2.3%; viability, T/C (second compound 0.1 µM, first compound 0.00949 µM): 52.9%; viability, T/C (second compound 0.1 µM, first compound 0.03 µM): 39.7%; viability, T/C (second compound 0.1 µM, first compound 0.0949 µM): 25.5%; viability, T/C (second compound 0.1 µM, first compound 0.3 µM): 16.1%; viability, T/C (second compound 0.1 µM, first compound 0.949 µM): 3.56%; viability, T/C (second compound 0.1 µM, first compound 3 µM): 1.95%; viability, T/C (second compound 0.316 µM, first compound 0.00949 µM): 19.2%; viability, T/C (second compound 0.316 µM, first compound 0.03 µM): 17.7%; viability, T/C (second compound 0.316 µM, first compound 0.0949 µM): 17.1%; viability, T/C (second compound 0.316 µM, first compound 0.3 µM): 8.59%; viability, T/C (second compound 0.316 µM, first compound 0.949 µM): 2.04%; viability, T/C (second compound 0.316 µM, first compound 3 µM): 2.27%; viability, T/C (second compound 1 µM, first compound 0.00949 µM): 18.9%; viability, T/C (second compound 1 µM, first compound 0.03 µM): 20.9%; viability, T/C (second compound 1 µM, first compound 0.0949 µM): 16.2%; viability, T/C (second compound 1 µM, first compound 0.3 µM): 7.4%; viability, T/C (second compound 1 µM, first compound 0.949 µM): 1.54%; viability, T/C (second compound 1 µM, first compound 3 µM): 0.93%; viability, T/C (second compound 3.16 µM, first compound 0.00949 µM): 18.7%; viability, T/C (second compound 3.16 µM, first compound 0.03 µM): 18.7%; viability, T/C (second compound 3.16 µM, first compound 0.0949 µM): 15.5%; viability, T/C (second compound 3.16 µM, first compound 0.3 µM): 6.58%; viability, T/C (second compound 3.16 µM, first compound 0.949 µM): 1.89%; viability, T/C (second compound 3.16 µM, first compound 3 µM): 1.09%; viability, T/C (second compound 10 µM, first compound 0.00949 µM): 21.7%; viability, T/C (second compound 10 µM, first compound 0.03 µM): 17.9%; viability, T/C (second compound 10 µM, first compound 0.0949 µM): 12.8%; viability, T/C (second compound 10 µM, first compound 0.3 µM): 6.06%; viability, T/C (second compound 10 µM, first compound 0.949 µM): 1.42%; viability, T/C (second compound 10 µM, first compound 3 µM): 1.91%
